{"source": "patent US20240398784A1", "about": "“C-LINKED ISOQUINOLINE AMIDES AS LRRK2 INHIBITORS, PHARMACEUTICAL COMPOSITIONS, AND USES THEREOF” (Merck Sharp & Dohme LLC, priority 2021, published 2024)", "biological_target": "LRRK2 G2019S (Homo sapiens, UniProt Q5S007, G2019S)", "sequence (Q5S007 whole entry G2019S)": "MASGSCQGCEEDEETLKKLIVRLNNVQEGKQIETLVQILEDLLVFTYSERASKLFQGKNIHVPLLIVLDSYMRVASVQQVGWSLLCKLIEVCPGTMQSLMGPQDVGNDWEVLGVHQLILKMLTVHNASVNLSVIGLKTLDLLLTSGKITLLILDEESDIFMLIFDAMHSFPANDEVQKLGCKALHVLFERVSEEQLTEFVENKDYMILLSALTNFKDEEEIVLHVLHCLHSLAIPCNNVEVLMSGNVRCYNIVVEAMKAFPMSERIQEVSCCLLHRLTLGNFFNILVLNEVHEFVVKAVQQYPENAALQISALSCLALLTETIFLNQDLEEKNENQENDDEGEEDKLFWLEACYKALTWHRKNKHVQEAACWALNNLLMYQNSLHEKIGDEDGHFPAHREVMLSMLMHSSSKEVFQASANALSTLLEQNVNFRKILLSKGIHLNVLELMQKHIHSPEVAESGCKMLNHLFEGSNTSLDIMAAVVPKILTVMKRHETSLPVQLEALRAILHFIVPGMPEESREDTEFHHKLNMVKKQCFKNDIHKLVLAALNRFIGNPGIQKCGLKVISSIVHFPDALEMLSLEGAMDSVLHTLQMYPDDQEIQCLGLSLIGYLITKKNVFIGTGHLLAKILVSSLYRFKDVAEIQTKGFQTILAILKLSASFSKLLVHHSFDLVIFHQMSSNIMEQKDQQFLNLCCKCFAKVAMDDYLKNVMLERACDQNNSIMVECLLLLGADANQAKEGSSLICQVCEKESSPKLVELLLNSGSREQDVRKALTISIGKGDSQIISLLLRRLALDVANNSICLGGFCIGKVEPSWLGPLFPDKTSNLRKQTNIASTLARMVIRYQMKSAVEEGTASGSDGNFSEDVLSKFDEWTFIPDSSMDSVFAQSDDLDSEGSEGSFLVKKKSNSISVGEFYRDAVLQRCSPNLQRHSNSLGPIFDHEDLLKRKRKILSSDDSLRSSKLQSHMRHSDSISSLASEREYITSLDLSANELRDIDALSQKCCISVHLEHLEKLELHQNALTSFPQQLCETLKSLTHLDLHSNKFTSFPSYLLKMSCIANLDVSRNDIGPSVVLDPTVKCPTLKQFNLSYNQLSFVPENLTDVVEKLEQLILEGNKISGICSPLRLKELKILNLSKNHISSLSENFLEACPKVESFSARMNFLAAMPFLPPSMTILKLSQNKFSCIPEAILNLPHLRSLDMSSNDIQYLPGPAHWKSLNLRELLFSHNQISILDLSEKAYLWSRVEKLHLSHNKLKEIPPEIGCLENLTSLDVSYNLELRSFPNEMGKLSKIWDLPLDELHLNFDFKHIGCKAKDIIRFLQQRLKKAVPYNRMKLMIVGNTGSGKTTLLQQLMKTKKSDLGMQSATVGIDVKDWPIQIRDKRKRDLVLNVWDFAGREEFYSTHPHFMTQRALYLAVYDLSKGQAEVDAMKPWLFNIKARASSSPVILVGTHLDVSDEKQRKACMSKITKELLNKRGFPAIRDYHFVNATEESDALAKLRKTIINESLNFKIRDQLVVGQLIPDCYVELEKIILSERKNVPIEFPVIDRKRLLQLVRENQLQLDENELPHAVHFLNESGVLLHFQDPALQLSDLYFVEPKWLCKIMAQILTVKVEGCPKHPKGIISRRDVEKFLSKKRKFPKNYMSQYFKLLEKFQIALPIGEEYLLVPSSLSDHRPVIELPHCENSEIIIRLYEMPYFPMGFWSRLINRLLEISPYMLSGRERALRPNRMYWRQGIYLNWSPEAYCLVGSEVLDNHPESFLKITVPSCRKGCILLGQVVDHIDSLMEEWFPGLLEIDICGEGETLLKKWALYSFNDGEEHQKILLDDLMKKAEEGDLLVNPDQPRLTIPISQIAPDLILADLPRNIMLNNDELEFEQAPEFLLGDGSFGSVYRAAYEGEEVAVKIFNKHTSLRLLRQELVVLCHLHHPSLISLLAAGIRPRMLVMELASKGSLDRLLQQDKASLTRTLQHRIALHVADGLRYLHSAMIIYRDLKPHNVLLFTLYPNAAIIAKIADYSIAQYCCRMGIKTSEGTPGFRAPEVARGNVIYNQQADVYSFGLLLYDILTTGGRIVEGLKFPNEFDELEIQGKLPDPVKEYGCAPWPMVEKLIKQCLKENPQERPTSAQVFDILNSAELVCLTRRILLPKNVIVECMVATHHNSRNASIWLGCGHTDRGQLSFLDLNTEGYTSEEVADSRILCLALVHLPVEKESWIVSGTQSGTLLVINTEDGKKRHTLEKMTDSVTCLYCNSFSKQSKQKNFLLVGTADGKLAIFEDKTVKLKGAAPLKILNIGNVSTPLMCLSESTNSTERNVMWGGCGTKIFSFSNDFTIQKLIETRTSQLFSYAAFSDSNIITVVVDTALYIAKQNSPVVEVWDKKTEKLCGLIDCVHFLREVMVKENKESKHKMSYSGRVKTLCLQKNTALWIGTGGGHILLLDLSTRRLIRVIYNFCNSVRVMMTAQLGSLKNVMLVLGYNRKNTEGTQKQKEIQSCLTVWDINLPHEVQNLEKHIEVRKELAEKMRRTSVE", "assay": "LRRK2 G2019S Km ATP LanthaScreen assay", "assay_type": "biochemical", "conditions": "for IC50: read-out: LRRK2 pIC50 (converted)", "data": [{"compound": "CCOC1CC2(C1)CC2C(=O)Nc1cc2cc(C3CCN(C4(C)COCC4F)CC3)c(C)cc2cn1", "note": "(single isomer, unassigned) [Ex-16.5, 5-ethoxy-N-(6-(1-(4-fluoro-3-methyltetrahydrofuran-3-yl)piperidin-4-yl)-7-methylisoquinolin-3-yl)spiro[2.3]hexane-1-carboxamide]", "values": [{"measurement": "IC50", "result": 0.0813, "unit": "nM"}]}, {"compound": "CC(C)(F)C1CC1C(=O)Nc1cc2cc(C3CCN(C4(C)COCC4O)CC3)c(Cl)cc2cn1", "note": "(single isomer, unassigned) [Ex-4.47, N-(7-chloro-6-(1-(4-hydroxy-3-methyltetrahydrofuran-3-yl)piperidin-4-yl)isoquinolin-3-yl)-2-(2-fluoropropan-2-yl)cyclopropane-1-carboxamide]", "values": [{"measurement": "IC50", "result": 2, "unit": "nM"}]}, {"compound": "Cc1cc2cnc(NC(=O)C3CC3c3ccccn3)cc2cc1C1CCN(C2(C)COCC2F)CC1", "note": "(single isomer, unassigned) [Ex-13.1, (1R,2R or 1S,2S)-N-(6-(1-((3R,4R or 3S,4S)-4-fluoro-3-methyltetrahydrofuran-3-yl)piperidin-4-yl)-7-methylisoquinolin-3-yl)-2-(pyridin-2-yl)cyclopropane-1-carboxamide]", "values": [{"measurement": "IC50", "result": 2.51, "unit": "nM"}]}, {"compound": "N#CC1(c2ccc3cnc(NC(=O)Cc4cnn(C(F)F)c4)cc3c2)CC12CC2", "note": "(single isomer, unassigned) [Ex-1.43, (R or S)-N-(6-(1-cyanospiro[2.2]pentan-1-yl)isoquinolin-3-yl)-2-(1-(difluoromethyl)-1H-pyrazol-4-yl)acetamide]", "values": [{"measurement": "IC50", "result": 7.08, "unit": "nM"}]}, {"compound": "CCC1C(C(=O)Nc2cc3cc(C4CC(C#N)C4)c(Cl)cc3cn2)C1c1cnn(C)c1", "note": "(stereo not shown) [Ex-9.18, N-(7-chloro-6-(3-cyanocyclobutyl)isoquinolin-3-yl)-2-ethyl-3-(1-methyl-1H-pyrazol-4-yl)cyclopropane-1-carboxamide]", "values": [{"measurement": "IC50", "result": 22.4, "unit": "nM"}]}, {"compound": "CC(C)(O)C1CC(C(=O)Nc2cc3cc(C4(C#N)CC45CC5)ccc3cn2)C1", "note": "(single isomer, unassigned) [Ex-1.26, (1R,3R or 1S,3S)-N-(6-((R or S)-1-cyanospiro[2.2]pentan-1-yl)isoquinolin-3-yl)-3-(2-hydroxypropan-2-yl)cyclobutane-1-carboxamide]", "values": [{"measurement": "IC50", "result": 3.39, "unit": "nM"}]}, {"compound": "CC1(N2CCC(c3cc4cc(NC(=O)C5CC56CCOC6)ncc4cc3Cl)CC2)COCC1F", "note": "(single isomer, unassigned) [Ex-6.6, (R or S)-N-(7-chloro-6-(1-((3R,4R or 3S,4S)-4-fluoro-3-methyltetrahydrofuran-3-yl)piperidin-4-yl)isoquinolin-3-yl)-5-oxaspiro [2.4] heptane-1-carboxamide]", "values": [{"measurement": "IC50", "result": 1.17, "unit": "nM"}]}, {"compound": "N#CC1(c2ccc3cnc(NC(=O)C4CCN(CC(F)(F)F)C4)cc3c2)CC12CC2", "note": "(stereo not shown) [Ex-2.43]", "values": [{"measurement": "IC50", "result": 31.6, "unit": "nM"}]}, {"compound": "CC1(N2CCC(c3cc4cc(NC(=O)Cc5ccncc5)ncc4cc3Cl)CC2)COCC1O", "note": "(stereo not shown) [Ex-3.8]", "values": [{"measurement": "LRRK2 pIC50", "result": 10.09}]}, {"compound": "Cn1cc(C2CC2C(=O)Nc2cc3cc(C4CCC(N5CC(F)C5)CC4)c(Cl)cc3cn2)cn1", "note": "(single isomer, unassigned) [Ex-5.7, N-(7-cchloro-6-(4-(3-fluoroazetidin-1-yl)cyclohexyl)isoquinolin-3-yl)-2-(1-methyl-1H-pyrazol-4-yl)cyclopropane-1-carboxamide]", "values": [{"measurement": "IC50", "result": 1.91, "unit": "nM"}]}, {"compound": "CC(C)(O)C1CC1C(=O)Nc1cc2cc(C3CCN(C4(C)COCC4O)CC3)c(Cl)cc2cn1", "note": "(stereo not shown) [Ex-2.21]", "values": [{"measurement": "IC50", "result": 0.0813, "unit": "nM"}]}, {"compound": "N#CC1(c2ccc3cnc(NC(=O)C4CC4c4ccccn4)cc3c2)CC12CC2", "note": "(stereo not shown) [Ex-2.38]", "values": [{"measurement": "IC50", "result": 2.04, "unit": "nM"}]}, {"compound": "CCC1C(C(=O)Nc2cc3cc(C4CCC(N5CC(C)(F)C5)CC4)c(Cl)cc3cn2)C1c1cnn(C)c1", "note": "(single isomer, unassigned) [Ex-11.1, (1R,2R,3R) or (1R,2S,3R) or (1S,2R,3S) or (1S,2S,3S)-N-(7-chloro-6-((cis or trans)-4-(3-fluoro-3-methylazetidin-1-yl)cyclohexyl)isoquinolin-3-yl)-2-ethyl-3-(1-methyl-1H-pyrazol-4-yl)cyclopropane-1-carboxamide]", "values": [{"measurement": "IC50", "result": 0.0813, "unit": "nM"}]}, {"compound": "CC1(N2CCC(c3cc4cc(NC(=O)C5CC5C#N)ncc4cc3Cl)CC2)COCC1O", "note": "(stereo not shown) [Ex-2.32]", "values": [{"measurement": "IC50", "result": 0.0813, "unit": "nM"}]}, {"compound": "Cc1cc2cnc(NC(=O)C3CC3c3ccccn3)cc2cc1C1CCN(C2(C)COCC2O)CC1", "note": "(single isomer, unassigned) [Ex-4.78, N-(6-(1-(4-hydroxy-3-methyltetrahydrofuran-3-yl)piperidin-4-yl)-7-methylisoquinolin-3-yl)-2-(pyridin-2-yl)cyclopropane-1-carboxamide]", "values": [{"measurement": "IC50", "result": 0.0813, "unit": "nM"}]}, {"compound": "N#CC1(c2ccc3cnc(NC(=O)C4CCN(C(=O)C(F)(F)F)CC4)cc3c2)CC12CC2", "note": "(single isomer, unassigned) [Ex-1.30, N-(6-((R or S)-1-cyanospiro[2.2]pentan-1-yl)isoquinolin-3-yl)-1-(2,2,2-trifluoroacetyl)piperidine-4-carboxamide]", "values": [{"measurement": "IC50", "result": 14.1, "unit": "nM"}]}]}
